In US20120282359A1, “Compositions, Kits, and Methods for the Treatment of Conditions Associated with Elevated Cholesterol Levels” (priority 2003, published 2012):

Test system: humans having risk factors for atherosclerosis
Assay: Example 4: double-blinded, randomized comparative study of treating elevated cholesterol levels
Assay type: in vivo, human
Conditions: at eight weeks, versus baseline
Procedure: A comparative study is executed to determine the effects of methods of treating elevated cholesterol levels comprising administration of each of: Test Sample 1, simvastatin (20 mg) in conjunction with fruit juice; Test Sample 2, simvastatin (10 mg) in conjunction with fruit juice; and Test Sample 3, simvastatin (10 mg) in conjunction with psyllium (15 grams) and fruit juice.
The study is a double-blinded, randomized comparison. Sixty humans, aging from about 30 to about 80 years, are utilized for the study, all of which are determined as having risk factors for atherosclerosis. The humans are randomized to three treatment groups (Treatment Group 1, Treatment Group 2, and Treatment Group 3). Each human stops any lipid-lowering treatment, and baseline lipid levels are obtained.
Treatment Group 1 receives Test Sample 1; Treatment Group 2 receives Test Sample 2; and Treatment Group 3 receives Test Sample 3; all over an eight week period. Test Sample 1 is administered as a concurrent administration once daily. Test Sample 2 is administered as a concurrent administration once daily. For Test Sample 3, 15 grams of psyllium is divided over three daily doses, each with fruit juice, wherein the last administered dose per day is concurrently administered with the simvastatin.
At eight weeks, levels of LDL-cholesterol, total cholesterol, and triglycerides are measured. Triglycerides are found not to be influenced based upon treatment group. However, on average, LDL-cholesterol and total cholesterol is decreased by approximately 29% in Treatment Group 1, LDL-cholesterol and total cholesterol is decreased by approximately 33% in Treatment Group 2, and LDL-cholesterol and total cholesterol is decreased by approximately 38% in Treatment Group 3.

| SMILES | LDL-cholesterol decreased, on average | total cholesterol decreased, on average |
| --- | --- | --- |
| CCC(C)(C)C(=O)O[C@H]1C[C@@H](C)C=C2C=C[C@H](C)[C@H](CC[C@@H]3C[C@@H](O)CC(=O)O3)[C@H]21 [Test Sample 1, simvastatin] | approximately 29% | approximately 29% |
| CCC(C)(C)C(=O)O[C@H]1C[C@@H](C)C=C2C=C[C@H](C)[C@H](CC[C@@H]3C[C@@H](O)CC(=O)O3)[C@H]21 [Test Sample 2, simvastatin] | approximately 33% | approximately 33% |
